Read-outs that look alike come from different tables or passages of the source.
Assays:
[1] = test system: Mantle cell lymphoma cell line Jeko; assay: Induction of apoptosis, FITC-Annexin V-PI flow cytometry; format: cell-based
Description: Analysis by flow cytometry. Cell viability was also measured by flow cytometry at 24 and 48 hr using annexin-V-FITC and propidium iodide (PI) according to the manufacturer's instructions (BD Biosciences).
Following the synthesis of 14 compounds, the anti-proliferation and pro-apoptotic activities of those compounds was evaluated in Mantle cell lymphoma cell line Jeko. Replicate cultures of Jeko were incubated in DMSO and the compounds for 24, 48 and 72 hours. FITC-Annexin V-PI stained flow cytometry was used to detect the apoptotic population of cells (Table 4).

OCI-AML3 = assay: MTS growth inhibition assay; format: cell-based; settings: Homo sapiens, OCI-AML-3; OCI-AML3, NPM1+, 48 h
Description: (§1) Clonogenic assays were set up by plating 1×10^3 cell/mL in semi-solid methylcellulose medium (MethoCult, Stem Cell Technologies). Colonies were counted after 10-14 days using an inverted microscope. Growth inhibition assays were measured using a colorimetric MTS assay: 5×10^4 cells were plated in 100 μL final volume in a 96-well plate in the presence of different concentrations of C12 for 24, 48 and 72 hours at 37° C. Afterwards, 20 μL of the CellTiter 96W AQueous One Solution Reagent, which contains tetrazolium compound [3-(4,5-[…])-5-(3-carboxymethoxyphenyl)-2-(4-sulfophenyl)-2H-tetrazolium, inner salt; MTS] and an electron coupling reagent (phenazine ethosulfate; PES) (Promega, Madison Wis.), was added to each well. Within 1-4 hours of incubation at 37° C., the optical density at 490 and 690 nm was measured. Cell viability was calculated with respect to the control samples and reference background wavelength at 690 nm. At least three independent experiments were performed. Growth curve assays were done by counting live cells using Trypan blue exclusion and inverted microscope for >12 days after plating the cells in 1×10^5 concentrations.
(§2) PRMT5 inhibition by C12 was also effective in promoting apoptosis and differentiation.
(§3) Referring to FIGS. 34A and 34B, a colorimetric MTS assay was used to measure the proliferation rate of AML cell lines and primary blasts from patients after 48 hours incubation with a PRMT5 inhibitor compound (HLCL61 or C12). The dose-dependent decrease in absorbance indirectly correlates with the number of metabolically active live cells. The IC50 values represent the concentration of the compound at which 50% cell death was achieved.

MV411 = assay: MTS growth inhibition assay; format: cell-based; settings: Homo sapiens, MV4-11, MV411, FLT3-ITD+, read-out: IC50 μM
Description: as §1, §2, §3

recombinant PRMT1 = target: T1, recombinant PRMT1 (Rattus norvegicus, UniProt Q63009); assay: Histone methyltransferase assay, [3H]SAM; format: biochemical
T1 construct: purchased Millipore 14-474
Description: (§4) Histone methylation was performed in the presence of DMSO, and 1-40 μM inhibitor compounds. […] After 1.5 h incubation at 30° C., reaction mixtures were spotted on Whatman P-81 filter paper, washed five times with 10 mL of […] sodium carbonate buffer (pH 9.0) to remove unincorporated [3H]SAM, and methylated peptides were detected by scintillation counting.
as §4, with “HLCL-32, HLCL-10, HLCL-61 and HLCL-64.” for “inhibitor compounds.”, “After a” for “After”, “C.” for “C.,”, “[^3H]SAM,” for “[3H]SAM,”

recombinant PRMT4 = target: T2, recombinant PRMT4 (Mus musculus, UniProt Q9WVG6); assay: Histone methyltransferase assay, [3H]SAM; format: biochemical; settings: FIG. 33A
T2 construct: purchased Millipore 14-575
Description: as §4
as §4, with “HLCL-32, HLCL-10, HLCL-61 and HLCL-64.” for “inhibitor compounds.”, “After a” for “After”, “C.” for “C.,”, “[^3H]SAM,” for “[3H]SAM,”

[2] = target: T3, affinity-purified hSWI/SNF associated Fl-PRMT7 (Homo sapiens, UniProt Q9NVM4); assay: Histone methyltransferase assay, [3H]SAM; format: biochemical; settings: FIG. 33A
T3 construct: made in house
Description: as §4
as §4, with “HLCL-32, HLCL-10, HLCL-61 and HLCL-64.” for “inhibitor compounds.”, “After a” for “After”, “C.” for “C.,”, “[^3H]SAM,” for “[3H]SAM,”

T1 sequence (Q63009 whole entry): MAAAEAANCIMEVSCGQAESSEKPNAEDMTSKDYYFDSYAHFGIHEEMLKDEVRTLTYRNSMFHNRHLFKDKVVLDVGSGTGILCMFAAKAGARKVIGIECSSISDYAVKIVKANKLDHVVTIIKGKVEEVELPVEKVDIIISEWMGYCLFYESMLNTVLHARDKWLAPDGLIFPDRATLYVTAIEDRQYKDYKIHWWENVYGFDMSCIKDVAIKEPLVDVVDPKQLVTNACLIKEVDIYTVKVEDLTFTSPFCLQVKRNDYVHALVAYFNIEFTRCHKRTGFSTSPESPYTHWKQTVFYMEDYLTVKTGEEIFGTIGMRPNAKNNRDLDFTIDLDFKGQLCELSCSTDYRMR
T3 sequence (Q9NVM4 whole entry): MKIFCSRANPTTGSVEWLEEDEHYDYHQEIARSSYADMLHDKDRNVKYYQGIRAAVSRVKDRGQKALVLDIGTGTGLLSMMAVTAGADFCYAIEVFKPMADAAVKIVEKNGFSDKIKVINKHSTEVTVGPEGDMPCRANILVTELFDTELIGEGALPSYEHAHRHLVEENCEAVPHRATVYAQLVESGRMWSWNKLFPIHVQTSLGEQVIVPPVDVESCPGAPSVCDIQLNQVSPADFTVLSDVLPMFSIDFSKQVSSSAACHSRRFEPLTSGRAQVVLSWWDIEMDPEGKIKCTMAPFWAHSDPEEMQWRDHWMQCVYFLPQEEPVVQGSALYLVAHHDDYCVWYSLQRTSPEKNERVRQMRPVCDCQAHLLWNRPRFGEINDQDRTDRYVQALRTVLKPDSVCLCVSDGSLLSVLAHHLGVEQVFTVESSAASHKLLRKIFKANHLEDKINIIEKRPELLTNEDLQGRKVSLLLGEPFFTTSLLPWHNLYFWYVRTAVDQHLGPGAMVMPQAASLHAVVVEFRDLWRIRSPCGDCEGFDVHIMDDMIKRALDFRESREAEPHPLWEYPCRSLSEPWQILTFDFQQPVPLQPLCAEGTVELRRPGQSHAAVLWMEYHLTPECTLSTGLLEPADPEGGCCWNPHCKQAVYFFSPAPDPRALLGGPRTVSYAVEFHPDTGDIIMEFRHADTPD
T2 sequence (Q9WVG6 whole entry): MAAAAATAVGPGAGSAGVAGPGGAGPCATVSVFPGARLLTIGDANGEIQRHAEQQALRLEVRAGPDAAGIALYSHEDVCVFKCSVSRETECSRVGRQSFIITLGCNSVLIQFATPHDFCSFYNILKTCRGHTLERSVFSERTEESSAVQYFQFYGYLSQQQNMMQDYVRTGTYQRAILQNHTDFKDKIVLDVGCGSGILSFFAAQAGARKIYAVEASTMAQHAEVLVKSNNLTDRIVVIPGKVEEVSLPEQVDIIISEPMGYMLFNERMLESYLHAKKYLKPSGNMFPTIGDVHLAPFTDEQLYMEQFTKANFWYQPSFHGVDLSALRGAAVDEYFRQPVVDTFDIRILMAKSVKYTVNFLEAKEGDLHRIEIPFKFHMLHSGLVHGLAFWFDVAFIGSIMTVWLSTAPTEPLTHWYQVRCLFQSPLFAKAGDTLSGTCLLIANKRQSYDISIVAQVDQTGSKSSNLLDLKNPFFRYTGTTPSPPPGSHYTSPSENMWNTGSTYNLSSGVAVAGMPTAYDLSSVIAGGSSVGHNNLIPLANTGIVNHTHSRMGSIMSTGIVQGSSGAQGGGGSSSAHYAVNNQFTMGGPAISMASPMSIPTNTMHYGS

Work on `CCn1c2ccccc2c2cc(CNCc3ccccc3OC)ccc21` [HLCL-61] yielded an EC50 ([1]; 24 h) of 15 µM, an EC50 ([1]; 48 h) of 11 µM and an IC50 (OCI-AML3) of 19.1 µM. The IC50 (MV411; 24 h, 24 h) was 17.9 µM, the IC50 (MV411; 48 h, 48 h) was 14.1 µM and the IC50 (MV411; 72 h, 72 h) was 10.9 µM. The “inhibition of PRMT1 enzyme” value (recombinant PRMT1; 10 μM, FIG. 17B) was “this non-specific activity is lost”, the “inhibition of PRMT1 enzyme” value (recombinant PRMT1; 20 μM and above, FIG. 17A) was “non-specific inhibition” and the “effect on PRMT1 enzymatic activity” value (recombinant PRMT1; FIG. 33A) was “ineffectiveness”. For the same molecule, the “effect on PRMT4 enzymatic activity” value (recombinant PRMT4) was “ineffectiveness” and the “effect on PRMT7 enzymatic activity” value [2] was “ineffectiveness”.
